Our source for the IC50 values is US6551999B1, “Angiogenesis inhibitor” (Senju Pharmaceutical Co., Ltd., priority 1995, dated 2003).

Peptide text beside a SMILES is read from it. * marks the point of attachment. Tos = Cc1ccc(S(=O)(=O)*)cc1

The first experiment has as its target T1, μ-calpain (Homo sapiens, UniProt P07384).
T1 construct: purchased Nakalai Tesque
T1 sequence (P07384 1-714): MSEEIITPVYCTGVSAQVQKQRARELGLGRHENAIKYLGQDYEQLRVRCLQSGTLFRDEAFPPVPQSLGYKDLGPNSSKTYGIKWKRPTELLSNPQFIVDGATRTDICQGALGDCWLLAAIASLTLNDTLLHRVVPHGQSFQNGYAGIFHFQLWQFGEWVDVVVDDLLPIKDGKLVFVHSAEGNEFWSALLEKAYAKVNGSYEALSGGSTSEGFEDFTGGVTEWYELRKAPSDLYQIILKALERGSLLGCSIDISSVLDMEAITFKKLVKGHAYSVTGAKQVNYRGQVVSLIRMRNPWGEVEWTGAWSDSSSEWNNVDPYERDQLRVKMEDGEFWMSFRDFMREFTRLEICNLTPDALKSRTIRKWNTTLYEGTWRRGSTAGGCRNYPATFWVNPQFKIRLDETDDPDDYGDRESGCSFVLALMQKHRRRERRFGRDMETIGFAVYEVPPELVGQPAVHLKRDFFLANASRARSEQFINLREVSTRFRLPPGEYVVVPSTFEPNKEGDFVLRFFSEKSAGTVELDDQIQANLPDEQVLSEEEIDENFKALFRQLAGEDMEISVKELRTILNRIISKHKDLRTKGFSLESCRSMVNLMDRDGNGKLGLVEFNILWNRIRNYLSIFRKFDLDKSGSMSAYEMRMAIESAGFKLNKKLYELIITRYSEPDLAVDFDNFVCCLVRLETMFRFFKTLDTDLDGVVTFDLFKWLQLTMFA
T1 sequence (P04632 1-268 partner): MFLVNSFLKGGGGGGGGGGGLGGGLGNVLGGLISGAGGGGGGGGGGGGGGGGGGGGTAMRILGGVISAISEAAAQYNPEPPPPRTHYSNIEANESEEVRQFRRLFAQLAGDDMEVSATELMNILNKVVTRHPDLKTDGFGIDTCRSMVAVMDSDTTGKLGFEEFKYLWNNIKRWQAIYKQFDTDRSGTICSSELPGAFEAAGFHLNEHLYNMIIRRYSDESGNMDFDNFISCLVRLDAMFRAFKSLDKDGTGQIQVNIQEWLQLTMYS
Nature of the experiment: μ-Calpain-inhibitory activity (casein substrate). The experiment is classed as biochemical. As to conditions: 60 minutes at 30° C., pH 7.4, 4 mM calcium chloride. The procedure:
Thus, to a solution containing 0.5 mg/ml casein, 50 mM Tris-HCl (pH 7.4), 20 mM dithiothreitol, and 4 mM calcium chloride was added 2.5 μl of a dimethyl sulfoxide solution containing a varying concentration of the test drug as well as 0.03 unit of μcalpain to initiate the reaction. The final liquid volume was 250 μl. After 60 minutes of reaction at 30° C., 100 μl of the reaction mixture was transferred to another vessel, to which 50 μl of purified water and 100 μl of 50% Coumassie brilliant blue solution were added. […] As a control, 2.5 μl of dimethyl sulfoxide not containing the test drug was added and the mixture was treated in the same manner as above. […] Similarly, the value found by adding 0.2 mM EDTA in lieu of 4 mM aqueous calcium chloride solution was used as the blank value. […] [formula]
On to `CC(C)C[C@@H](C=O)NC(=O)[C@@H](NS(=O)(=O)c1ccc2ccccc2c1)C(C)(C)C` [Compound 38, N-(2-naphthalenesulfonyl)-L-tert-leucyl-L-leucinal], for which the IC50 was found to be 6.1 µM. With `NC(=O)CC[C@H](NC(=O)[C@H]1O[C@@H]1C(=O)O)C(=O)N1CCN(c2ccccc2Cl)CC1` [Compound 30, (2s,3s)-3-[[[[(1s)-1-[[4-(2-chlorophenyl)-1-piperazinyl]carbonyl]-3-carbamoyl]propyl]amino]carbonyl]oxiranecarboxylic acid], the IC50 is 6 µM. With `C[C@H](NC(=O)[C@H]1O[C@@H]1C(=O)O)C(=O)N1CCN(c2ccccc2Cl)CC1` [Compound 23, (2s,3s)-3-[[[(1s)-1-[[4-(2-chlorophenyl)-1-piperazinyl]carbonyl]ethyl]amino]carbonyl]oxiranecarboxylic acid], the IC50 is 5.1 µM. Consider `CC(C)[C@H](NS(=O)(=O)c1ccc(F)cc1)C(=O)N[C@H](C=O)Cc1c[nH]c2ccccc12` [Compound 49, N-(4-fluorophenylsulfonyl)-L-valyl-L-tryptophanal], for which the IC50 is 0.023 µM.

As for `CC(C)C[C@H](NC(=O)[C@H]1O[C@@H]1C(=O)O)C(=O)N1CCN(c2ccc(Cl)cc2)CC1` [Compound 19, (2s,3s)-3-[[[[(1s)-1-[[4-(4-chlorophenyl)-1-piperazinyl]carbonyl]-3-methyl]butyl]amino]carbonyl]oxiranecarboxylic acid], the IC50 was 0.49 µM. Take `CC(C)[C@H](NS(=O)(=O)c1ccc(F)cc1)C(=O)NC(C=O)CC1CCCCC1` (stereo partly drawn) [Compound 52, N-(4-fluorophenylsulfonyl)-L-valyl-L-cyclohexylalaninal]: the IC50 was 0.03 µM. Regarding `CC(C)[C@H](NS(=O)(=O)c1ccc2ccccc2c1)C(=O)NC(C=O)CC1CCCCC1` (stereo partly drawn) [Compound 53, N-(2-naphthalenesulfonyl)-L-valyl-L-cyclohexylalaninal], the IC50 was found to be 0.0083 µM.

Regarding `CCCC[C@H](NS(=O)(=O)c1ccc(F)cc1)C(=O)N[C@H](C=O)CC(C)C` [Compound 40, N-(4-fluorophenylsulfonyl)-L-norleucyl-L-leucinal], the IC50 amounted to 0.26 µM.

As to `CC(C)C[C@H](NC(=O)[C@H]1O[C@@H]1C(=O)O)C(=O)N1CCN(S(=O)(=O)N(C)C)CC1` [Compound 15, (2s,3s)-3-[[[[(1s)-1-[(4-dimethylsulfamoyl-1-piperazinyl)carbonyl]-3-methyl]butyl]amino]carbonyl]oxiranecarboxylic acid], the IC50 amounted to 1.1 µM. In the case of `O=C(O)[C@H]1O[C@@H]1C(=O)N1CCC[C@H]1C(=O)N1CCN(c2ccccc2Cl)CC1` [Compound 27, (2s,3s)-3-[[(2s)-2-[[4-(2-chloro-phenyl)-1-piperazinyl]carbonyl]-1-pyrrolidinyl]carbonyl]oxiranecarboxylic acid], the IC50 came out at 2400 µM. Regarding `CC(C)C[C@H](NC(=O)[C@H]1O[C@@H]1C(=O)O)C(=O)N1CCN(c2cccc(Cl)c2)CC1` [Compound 18, (2s,3s)-3-[[[[(1s)-1-[[4-(3-chlorophenyl)-1-piperazinyl]carbonyl]-3-methyl]butyl]amino]carbonyl]oxiranecarboxylic acid], the IC50 came out at 0.63 µM. Take `O=C[C@H](Cc1ccccc1)NC(=O)C1(NS(=O)(=O)c2ccc3ccccc3c2)CCCCC1` [Compound 47]: the IC50 stood at 0.2 µM. Turning to `Cc1ccc(S(=O)(=O)N2CCN(C(=O)[C@H](CC(C)C)NC(=O)[C@H]3O[C@@H]3C(=O)NO)CC2)cc1` [Compound 33, (2s,3s)-3-[[[[(1s)-1-[[4-(4-methylphenylsulfonyl)-1-piperazinyl]carbonyl]-3-methyl]butyl]amino]carbonyl]oxiranecarbohydroxamic acid], the IC50 was determined as 1.9 µM. On the same count and under the same terms, the result for `Cc1ccc(S(=O)(=O)N[C@H](C(=O)N[C@H](C=O)Cc2ccccc2)C(C)C)cc1` [Compound 46, N-(4-methylphenylsulfonyl)-L-valyl-L-phenylalaninal] (Tos-Val-Phe-aldehyde) reads 0.018 µM. Consider `CC(C)C[C@@H](C=O)NC(=O)[C@@H](NS(=O)(=O)c1ccc2ccccc2c1)C(C)C` [Compound 34, N-(2-naphthalenesulfonyl)-L-valyl-L-leucinal], for which the IC50 came to 0.01 µM. Take `CC(C)[C@H](NS(=O)(=O)c1ccc2ccccc2c1)C(=O)N[C@H](C=O)Cc1ccccc1` [Compound 44, N-(2-naphthalenesulfonyl)-L-valyl-L-phenylalaninal]: the IC50 is 0.014 µM. For the compound `CC(C)[C@H](NS(=O)(=O)c1ccc(Cl)cc1)C(=O)NC(C=O)CC1CCCCC1` (stereo partly drawn) [Compound 54, N-(4-chlorophenylsulfonyl)-L-valyl-L-cyclohexylalaninal], the IC50 was 0.014 µM. Regarding `CC(C)C[C@H](NC(=O)[C@H]1O[C@@H]1C(=O)O)C(=O)N1CCN(c2ccccc2)CC1` [Compound 14, (2s,3s)-3-[[[[(1s)-1-[(4-phenyl-1-piperazinyl)carbonyl]-3-methyl]butyl]amino]carbonyl]oxiranecarboxylic acid], the IC50 amounted to 0.78 µM.

`O=C(O)[C@H]1O[C@@H]1C(=O)NC1(C(=O)N2CCN(c3ccc(F)cc3)CC2)CCCC1` [Compound 31, (2s,3s)-3-[[[(1s)-1-[[4-(4-fluorophenyl)-1-piperazinyl]carbonyl]-1-cyclopentyl]amino]carbonyl]oxiranecarboxylic acid]: the IC50 turned out to be 150 µM. As for `CC(C)[C@H](NS(=O)(=O)c1ccc(F)cc1)C(=O)N[C@H](C=O)Cc1ccccc1` [Compound 43, N-(4-fluorophenylsulfonyl)-L-valyl-L-phenylalaninal], the IC50 was 0.027 µM. For `Cc1ccc(S(=O)(=O)N[C@H](C(=O)N[C@H](C=O)CC(C)C)C(C)C)cc1` [Compound 37, N-(4-methylphenylsulfonyl)-L-valyl-L-leucinal] (Tos-Val-Leu-aldehyde), the IC50 was 0.028 µM. For `CC(C)(C)[C@H](NS(=O)(=O)c1ccc2ccccc2c1)C(=O)N[C@H](C=O)Cc1ccccc1` [Compound 42, N-(2-naphthalenesulfonyl)-L-tert-leucyl-L-phenylalaninal], the IC50 came out at 3.2 µM. As for `CC(C)[C@H](NS(=O)(=O)c1ccc(Cl)cc1)C(=O)N[C@H](C=O)Cc1c[nH]c2ccccc12` [Compound 48, N-(4-chlorophenylsulfonyl)-L-valyl-L-tryptophanal], the IC50 is 0.013 µM. In the case of `CCC[C@H](NS(=O)(=O)c1ccc(F)cc1)C(=O)N[C@H](C=O)CC(C)C` [Compound 41, N-(4-fluorophenylsulfonyl)-L-norvalyl-L-leucinal], the IC50 was determined as 0.13 µM. As to `O=C[C@H](Cc1c[nH]c2ccccc12)NC(=O)C1(NS(=O)(=O)c2ccc3ccccc3c2)CCCCC1` [Compound 50, 1-(2-naphthalenesulfonylamino)cyclohexanecarbonyl-L-tryptophanal], the IC50 turned out to be 0.36 µM.

Consider `O=C(O)[C@H]1O[C@@H]1C(=O)NCCC(=O)N1CCN(c2ccccc2Cl)CC1` [Compound 25, (2s,3s)-3-[[[2-[[4-(2-chlorophenyl)-1-piperazinyl]carbonyl]ethyl]amino]carbonyl]oxiranecarboxylic acid], for which the IC50 turned out to be 41 µM.

As for `CC(C)[C@H](NS(=O)(=O)c1ccc(Cl)cc1)C(=O)N[C@H](C=O)Cc1ccccc1` [Compound 45, N-(4-chlorophenylsulfonyl)-L-valyl-L-phenylalaninal], the IC50 amounted to 0.014 µM.

The same experiment, now with this note: read-out: Calpain 50% inhibitory concentration (IC50); 60 minutes at 30° C., pH 7.4, 4 mM calcium chloride.
Turning to `COc1ccc(N2CCN(C(=O)[C@H](CC(C)C)NC(=O)[C@H]3O[C@@H]3C(=O)O)CC2)cc1` [Compound 20, (2s,3s)-3-[[[[(1s)-1-[[4-(4-methoxyphenyl)-1-piperazinyl]carbonyl]-3-methyl]butyl]amino]carbonyl]oxiranecarboxylic acid], the IC50 came to 1.2 µM. Regarding `CC(=O)NCSC[C@@H](NC(=O)[C@H]1O[C@@H]1C(=O)O)C(=O)N1CCN(c2ccccc2Cl)CC1` [Compound 28, (2s,3s)-3-[[[[(1s)1-[[4-(2-chlorophenyl)-1-piperazinyl]carbonyl]-2-acetylaminomethylthio]-ethyl]amino]carbonyl]oxiranecarboxylic acid], the IC50 amounted to 3.9 µM.
